Data reported in a compilation of properties of binary mixtures (doi:10.1021/je0498457).

Experiment: excess molar enthalpy (molar enthalpy of mixing); xn = mol fraction of the nth substance listed
Details: 100 kPa

C1CCOCC1 + CCCCO
excess molar enthalpy [kcal/mol]
Details | 283.15 K | 298.15 K | 313.15 K
x1 = 0.04 | 0.0282 | 0.0299 | 0.0284
x1 = 0.09 | 0.0574 | 0.0614 | 0.0617
x1 = 0.188 | 0.108 | – | 0.124
x1 = 0.288 | 0.15 | 0.165 | 0.176
x1 = 0.39 | 0.182 | 0.201 | 0.215
x1 = 0.49 | 0.199 | – | 0.234
x1 = 0.593 | 0.204 | 0.223 | –
x1 = 0.694 | 0.192 | – | 0.218
x1 = 0.796 | 0.159 | 0.167 | 0.171
x1 = 0.901 | 0.0963 | 0.0985 | 0.0975
x1 = 0.952 | 0.0528 | 0.0531 | 0.0516
